Source: paper PMC8964335 (Drug Design, Development and Therapy, 2022)
“Also recorded” adds a separate entry of the source. Like-named read-outs stand apart in the source and are kept apart here. Values belong to the compound of their own block, whether it stands above or below them.

Assays:
[1] = Voriconazole steady-state check from two adjacent trough concentrations; type: in vivo, human; settings: first four patients, day 4, 200 mg per 12 h without loading dose
[2] = no reference given; cited from earlier work
[3] = tested on: patients with hematological malignancies; assay: Adverse effects during the DDI study; type: in vivo, human
[4] = tested on: breast cancer resistance protein (BCRP); settings: cited from earlier work
[5] = Ruxolitinib pharmacokinetics without and with co-administered voriconazole; type: in vivo, human
patients undergoing HSCT = settings: initial dose 5 mg twice daily; cited from earlier work
[6] = tested on: patients receiving ruxolitinib; settings: patients receiving ruxolitinib vs control regimen; cited from earlier work
[7] = human; cited from earlier work
CYP2C9 = settings: cited from earlier work
[8] = coadministered with fluconazole vs ruxolitinib alone; cited from earlier work
[9] = 10 mg once daily for 10 days; cited from earlier work
[10] = presence vs absence of food; cited from earlier work
CYP3A4 = settings: cited from earlier work
SR-aGVHD patients = settings: 10 mg ruxolitinib twice daily, cited from earlier work
healthy people = settings: cited from earlier work
[11] = after pre-treatment with voriconazole vs ruxolitinib alone
[12] = ruxolitinib 5 mg co-administered with voriconazole
[13] = with voriconazole vs ruxolitinib alone

- difference between two trough concentrations (C12-C0)/C12×100% [1]: less than 15%
Compound: C[C@@H](c1ncncc1F)[C@](O)(Cn1cncn1)c1ccc(F)cc1F [voriconazole]
- bioavailability [2]: 96%
- adverse effects ([3]; voriconazole 200 mg per 12 h without loading dose, first four patients): no adverse effects were observed
- inhibition of BCRP [4]: does not inhibit

Compound: CC[C@@H]([C@H](C)O)n1ncn(-c2ccc(N3CCN(c4ccc(OC[C@@H]5CO[C@@](Cn6cncn6)(c6ccc(F)cc6F)C5)cc4)CC3)cc2)c1=O [posaconazole]
- bioavailability [2]: 83%

Compound: N#CC[C@H](C1CCCC1)n1cc(-c2ncnc3[nH]ccc23)cn1 [ruxolitinib]
- AUCinf increased by [5, 11]: 118.3%
- AUClast increased by [5, 11]: 110.1%
- Cmax increased by [5, 11]: 50.4%
- T1/2 increased by [5, 11]: 81.3%
- change in Tmax [5, 11]: no significant change
- CL/F % of ruxolitinib alone [5, 12]: 43.6%
- Cmax % of ruxolitinib alone [5, 12]: 150.4%
- CL/F ([5]; ruxolitinib 5 mg single oral dose alone, 12 patients, mean ± SD): 22.5 ± 6.4 L/h
- AUClast increased to [5, 13]: approximately 2.1 fold
- T1/2 prolonged to [5, 13]: 1.81 fold
- AUCinf increased to (range over patients) ([5]; with voriconazole vs ruxolitinib alone, range): 1.44–3.35 fold
- patients developing severe cytopenia (patients undergoing HSCT): 60%
- patients responding (patients undergoing HSCT): 75%
- fungal infection [6]: 11.5%
- unchanged parent molecules in urine and feces [7]: less than 1%
- adverse effects ([3]; two single doses of 5 mg ruxolitinib): No observed adverse effects; also recorded: No adverse effect
- share of metabolism by CYP2C9 (CYP2C9): 19%
- AUCinf increased by [8]: 232%
- AUClast increased by [8]: 234%
- Cmax increased by [8]: 47%
- accumulation on repeated dosing [9]: no cumulative effect
- AUCinf decreased by food [10]: 6%
- Cmax decreased by food [10]: 24.3%
- share of metabolism by CYP3A4 (CYP3A4): 76%
- overall response on day 28 (SR-aGVHD patients; SR-aGVHD): 62%
- anemia, severe (grade ≥ 3) adverse event (SR-aGVHD patients): 22%
- neutropenia, severe (grade ≥ 3) adverse event (SR-aGVHD patients): 13%
- thrombocytopenia, severe (grade ≥ 3) adverse event (SR-aGVHD patients): 27%
- maximum tolerated dose (MTD) (healthy people; once daily): 100 mg
- maximum tolerated dose (MTD) (healthy people; twice daily): 25 mg
